Key:
Rattus norvegicus = species on record: Rattus norvegicus; test: Potentiation of AMPA receptor mediated KA-induced current in Sprague-Dawley rat primary cerebellar granule neurons at 200 uM
[1] = Extracellular drug level in Sprague-Dawley rat hippocampus at 100 mg/kg, po after 4 hrs; type: ADME, organism-based; design: dose 100 mg/kg, route oral; conditions: hippocampus extracellular fluid, read-out: Drug uptake
[2] = Extracellular drug level in Sprague-Dawley rat hippocampus at 100 mg/kg, po after 6 hrs; type: ADME, organism-based; design: dose 100 mg/kg, route oral; conditions: hippocampus extracellular fluid, read-out: Drug uptake
[3] = Potentiation of AMPA receptor mediated KA-induced current in Sprague-Dawley rat primary cerebellar granule neurons

Activity (Rattus norvegicus)	SMILES	also measured
12%	CCNS(=O)(=O)c1cc(Cl)ccc1N	–
5%	CNS(=O)(=O)c1cc(Cl)ccc1N	–
91%	CCNc1ccc(Cl)cc1S(N)(=O)=O	–
23%	Nc1ccc(Cl)cc1S(N)(=O)=O	concentration at 4 h [1]: 12000 ng/mL; concentration at 6 h [2]: 8000 ng/mL; EC50 [3]: 284 µM
69%	CNc1ccc(Cl)cc1S(N)(=O)=O	–
8%	Nc1cc(Cl)ccc1S(N)(=O)=O	–
-8%	Nc1ccc([N+](=O)[O-])cc1S(N)(=O)=O	–

More lines, now with the values behind:

SMILES	Activity (Rattus norvegicus)	also measured
CCCNS(=O)(=O)c1cc(Cl)ccc1N	4%	–
Nc1cc(Cl)c(Cl)cc1S(N)(=O)=O	35%	–
Nc1cc(Cl)c(S(N)(=O)=O)cc1S(N)(=O)=O	-6%	–
CC(C)Nc1ccc(Cl)cc1S(N)(=O)=O	32%	–
COc1ccc(S(N)(=O)=O)c(N)c1	-5%	–
CCCNc1ccc(Cl)cc1S(N)(=O)=O	80%	EC50 [3]: 134 µM
CC1Nc2ccc(Cl)cc2S(=O)(=O)N1 (racemic)	80%	–
Nc1ccccc1S(N)(=O)=O	-5%	–
Cc1cccc(S(N)(=O)=O)c1N	7%	–

Source: ChEMBL document CHEMBL1152698, “A novel class of allosteric modulators of AMPA/Kainate receptors” (Bioorg Med Chem Lett, 2009)
